PMC6315428, “Quantification of α-Thujone and Its Metabolites in Human Urine after Consumption of a Sage Infusion Using Stable Isotope Dilution Assays” (Toxins, 2018)

Assays:
[1] = design: method as in PMID 20425757; details: cited from earlier work
[2] = design: method as in PMID 11368559; details: mouse urine; cited from earlier work
[3] = Human study: urinary excretion of α-thujone and hydroxythujones after consumption of a sage infusion (SIDA, SPME-GC-MS and LC-MS/MS); type: in vivo, humans; details: for detection in urine of the volunteers: after consumption of 575.0 µg α-thujone, hydroxythujones after liberation from glucuronides/sulfates; for minimum degree of glucuronidation/sulfation: human urine, calculated from two samples with free hydroxythujones above LOQ; for Total excretion in human urine: 575 µg α-thujone as sage infusion, urine over 24 h; for time after which no additional excretion was observed: after ingestion of sage infusion, all but test person 2 for 7-OH; for maximum concentration in urine: volunteer with the highest dose of 14.3 µg/kg bw, after sage infusion
Procedure: The protocol of the study was approved by the Ethics Committee of the Faculty of Medicine of the Technische Universität München (1996/07). Written informed consent was obtained from participants before inclusion into the study. Seven healthy, non-smoking volunteers, six Caucasian, participated in the study (3 men and 4 women, mean (±standard deviation [SD]) age 29.7 (±9.21) years, and mean (±SD) body mass index 23.1 (±5.08) kg/m^2). For 24 h prior to the study, the volunteers avoided herbs and spices containing α-thujone for a wash out. A blank urine sample was collected as a control from each volunteer before consumption of the sage infusion. On an empty stomach, the volunteers drank the tea (575 µg α-thujone) within 10 min, and urine was collected at 1, 1.5, 2.5, 3.5 h, and in the time frames of 4.5–6, 6–8, 8–14, 14–24 h after consumption. A defined meal (cheese sandwich) was eaten after 2 h. The samples were stored at 4 °C until preparation for analysis.
The cooled samples were adjusted with HCl to pH 5 and divided into 2 mL aliquots. A solution containing the labeled hydroxythujones (220–430 ng) and β-glucuronidase (5000 units/mL sample; 1 unit liberates […] phenolphthalein from its glucuronide per hour at pH 5.0 at 37 °C) was added, and the mixture stirred at 37 °C for 15 h. Afterwards, the samples were centrifuged (16000 rpm, 4 °C, 15 min) and the supernatant was subjected to solid phase extraction (SPE).
The SPE tubes (ENVI-18, 100 mg, Supelco) were equilibrated with 2 × 1 mL methanol and 2 × 1 mL water. Thereafter, the clear supernatant was loaded on the columns and was slowly passed through without suction. The protein residue was reextracted with water/methanol (95:5, 1 mL), and also loaded on the SPE tubes. The tubes were washed with water/methanol (95:5, 2 × 1 mL) by suction, and then dried carefully. Analytes were slowly eluted with water/acetonitrile (50:50, 500 µL). The extracts were analyzed by LC-MS/MS.
Measurements on the LC-MS/MS were performed using a Shimadzu LC-30A Prominence system (Shimadzu, Kyoto, Japan) interfaced to an LCMS-8050 Triple Quadrupol mass spectrometer (Shimadzu, Kyoto, Japan). A total of 40 µL was injected onto a YMC Pro Pack C4 at 30 °C oven temperature and flow of 0.5 mL/min with water (solvent A) and ACN (solvent B). The gradient was started and held at 5% B for 2 min, raised linearly from 5% B to 30% B during the next 1 min, then raised linearly to 33% within the next 7 min, and to 100% B within the next 1 min. Thereafter, the mobile phase returned to 5% B within 2 min, and the system was equilibrated for 18 min before the next run. The atmospheric pressure chemical ionization (APCI) source was operated in the positive mode under the following conditions: nebulizing gas flow 3 L/min; interface temperature 350 °C; desolvation line temperature 200 °C; drying gas flow 5 L/min. For MS/MS of the hydroxythujones, the mass transitions (m/z precursor ion/ m/z product ion) 151/81 (collision energy = −17 V) and 151/123 (−14 V) for 2-OH, 151/109 (−13 V) and 151/91 (−23 V) for 4-OH, 151/105 (−18 V) and 151/81 (−17 V) for 7-OH, 157/129 (−14 V) and 157/87 (−15 V) for d6-2-OH, […] (−16 V) and 157/91 (−23 V) for d6-4-OH, and 157/129 (−14 V) and 157/99 (−16 V) for d6-7-OH were used.
To determine the hydroxythujone content in urine, calibration functions for 2-OH, 4-OH, and 7-OH were generated with the respective labeled compounds. Calibrators with unlabeled and labeled compounds were prepared in an aqueous solution, in seven different ratios for the unlabeled compounds ranging from 3.1–601.9 µg/mL, while maintaining the labelled compounds constant at concentrations of 450 µg/mL each. The samples were measured by LC-MS/MS. From the relation of area ratios to molar ratios, calibration curves were constructed. […]

[4] = system: gamma-aminobutyric acid A (GABAA) receptor; design: method as in PMID 10725394; details: leads to convulsions and excitations at higher concentrations in animal studies; cited from earlier work
[5] = recently deduced; cited from earlier work
[6] = test person 1, dose/bw 14.3 µg/kg, after glucuronide/sulfate deconjugation
[7] = test person 2, dose/bw 11.4 µg/kg, after glucuronide/sulfate deconjugation
[8] = test person 3, dose/bw 8.2 µg/kg, after glucuronide/sulfate deconjugation
[9] = test person 4, dose/bw 6.7 µg/kg, after glucuronide/sulfate deconjugation
[10] = test person 5, dose/bw 8.9 µg/kg, after glucuronide/sulfate deconjugation
[11] = test person 6, dose/bw 4.6 µg/kg, after glucuronide/sulfate deconjugation
[12] = test person 7, dose/bw 7.6 µg/kg, after glucuronide/sulfate deconjugation

detection in urine of the volunteers [3]	minimum degree of glucuronidation/sulfation [3] [%]	Total excretion in human urine [3, 6] [µg]	Total excretion in human urine [3, 7] [µg]	Total excretion in human urine [3, 8] [µg]	Total excretion in human urine [3, 9] [µg]	Total excretion in human urine [3, 10] [µg]	Total excretion in human urine [3, 11] [µg]	Total excretion in human urine [3, 12] [µg]	time after which no additional excretion was observed ([3]; urine) [h]	Structure (SMILES)	degree of glucuronidation [2] [%]	also measured
										CC12CCC(CC1)C(C)(C)O2 [1,8-cineole]		dose recovered as the sum of 2-, 9-, 3- and 7-hydroxy-1,8-cineole [1]: 52.5%
not being detectable										CC(C)[C@@]12C[C@@H]1[C@@H](C)C(=O)[C@@H]2O [2-OH, 2-hydroxythujone]	85	detection in urine of the volunteers ([3]; listed as 2-Hydroxythujone): not present
detectable	≥ 66	13.9	17.9	14.6	11.8	16.5	17.0	26.3	7 to 8	CC(C)[C@]12CC(=O)[C@@](C)(O)[C@H]1C2 [4-OH, 4-hydroxythujone]	61	
detectable	≥ 55	15.6	20.9	8.6	4.0	7.8	6.9	5.9	7 to 8	C[C@H]1C(=O)C[C@]2(C(C)(C)O)C[C@H]12 [7-OH, 7-hydroxythujone]	2	slower excretion until ([3]; urine, test person 2): 16 h
										CC(C)[C@]12CC(=O)[C@H](C)[C@H]1C2 [thujone]		effect on GABAA receptor [4]: inhibits

Structure (SMILES)	detection in urine of the volunteers [3]	minimum degree of glucuronidation/sulfation [3] [%]	Total excretion in human urine [3, 6] [µg]	Total excretion in human urine [3, 7] [µg]	Total excretion in human urine [3, 8] [µg]	Total excretion in human urine [3, 9] [µg]	Total excretion in human urine [3, 10] [µg]	Total excretion in human urine [3, 11] [µg]	Total excretion in human urine [3, 12] [µg]	time after which no additional excretion was observed ([3]; urine) [h]	degree of glucuronidation [2] [%]	also measured
CC(C)[C@]12CC(=O)[C@H](C)[C@H]1C2 [α-thujone]	detectable											acceptable daily intake [5]: 110 µg/kg bw/d; detection in urine of the volunteers ([3]; listed as α-Thujone): detectable in a low amount; time after which urine concentration fell under the LODs ([3]; most volunteers): 4.5 h; Total excretion in human urine ([3]; test person 1, dose/bw 14.3 µg/kg): 0.0451 µg; Total excretion in human urine ([3]; test person 2, dose/bw 11.4 µg/kg): 0.008 µg; Total excretion in human urine ([3]; test person 3, dose/bw 8.2 µg/kg): 0.0361 µg; Total excretion in human urine ([3]; test person 4, dose/bw 6.7 µg/kg): 0.0163 µg; Total excretion in human urine ([3]; test person 5, dose/bw 8.9 µg/kg): 0.0107 µg; Total excretion in human urine ([3]; test person 6, dose/bw 4.6 µg/kg): 0.025 µg; Total excretion in human urine ([3]; test person 7, dose/bw 7.6 µg/kg): 0.0351 µg; time within which excreted ([3]; urine, almost all volunteers): ≤ 8 h; maximum concentration in urine [3]: 94.3 ng/L; maximum concentration in urine ([3]; listed as α-Thujone): 94 ng/L
